In US11382918B2, “Methods for treating Huntington's Disease” (PTC Therapeutics, Inc., priority 2017, dated 2022):

Tested on: Endogenous Huntingtin Protein (HTT)
Test: Endogenous Huntingtin Protein Assay (ELISA-based MSD electrochemiluminescence)
Assay type: cell-based
Details: Table 1
Experimental: Compounds of Formula (I) were tested using the Meso Scale Discovery (MSD) Assay provided in International Application No. PCT/US2016/066042, filed on Dec. 11, 2016 and claiming priority to U.S. Provisional Application 62/265,652 filed on Dec. 10, 2015, published as International Publication No. WO 2017/100726 on Jun. 15, 2017, the entire contents of which are incorporated herein by reference.
The Endogenous Huntingtin Protein assay used in Example 1 was developed using the ELISA-based MSD electrochemiluminescence assay platform.
Endogenous Huntingtin Protein Assay
Meso Scale Discovery (MSD) 96-well or 384-well plates were coated overnight at 4° C. with MW1 (expanded polyglutamine) or MAB2166 monoclonal antibody (for capture) at a concentration of 1 μg/mL in PBS (30 μL per well). Plates were then washed three times with 300 µL wash buffer (0.05% Tween-20 in PBS) and blocked (100 μL blocking buffer; 5% BSA in PBS) for 4-5 hours at room temperature with rotational shaking and then washed three times with wash buffer.
Samples (25 μL) were transferred to the antibody-coated MSD plate and incubated overnight at 4° C. After removal of the lysates, the plate was washed three times with wash buffer, and 25 μL of #5656S (Cell signaling; rabbit monoclonal) secondary antibody (diluted to 0.25 μg/mL in 0.05% Tween-20 in blocking buffer) was added to each well and incubated with shaking for 1 Hour at room temperature. Following incubation with the secondary antibody, the wells were rinsed with wash buffer after which 25 μL of goat anti-rabbit SULFO TAG secondary detection antibody (required aspect of the MSD system) (diluted to 0.25 μg/mL in 0.05% Tween-20 in blocking buffer) was added to each well and incubated with shaking for 1 hour at room temperature. After rinsing three times with wash buffer, 150 μL of read buffer T with surfactant (MSD) were added to each empty well, and the plate was imaged on a SI 6000 imager (MSD) according to manufacturers' instructions provided for 96- or 384-well plates.

Row | IC50 [nM] | SMILES
1 | 3000 to 33000 | Cc1nc2ccc(-c3cc(=O)n4cc(N5CCNCC5)ccc4n3)cc2s1 [compound 219, 2-(2-methyl-1,3-benzothiazol-6-yl)-7-(piperazin-1-yl)-4H-pyrido[1,2-a]pyrimidin-4-one]
2 | 1000 to 3000 | C[C@H]1CN(c2ccc3nc(-c4ccc5nn(C)cc5c4)cc(=O)n3c2)CCN1 [compound 138, 2-(2-methyl-2H-indazol-5-yl)-7-[(3S)-3-methylpiperazin-1-yl]-4H-pyrido[1,2-a]pyrimidin-4-one]
3 | 100 to 500 | Cc1cc(C2CCN(CCO)CC2)cn2c(=O)cc(-c3ccc4nn(C)cc4c3)nc12 [compound 711, 7-[1-(2-hydroxyethyl)piperidin-4-yl]-9-methyl-2-(2-methyl-2H-indazol-5-yl)-4H-pyrido[1,2-a]pyrimidin-4-one]
4 | 1000 to 3000 | CCN1CCC(c2cn3c(=O)cc(-c4cc(C)c5nc(C)cn5c4)nc3cn2)CC1 [compound 593, 2-(2,8-dimethylimidazo[1,2-a]pyridin-6-yl)-7-(1-ethylpiperidin-4-yl)-4H-pyrazino[1,2-a]pyrimidin-4-one]
5 | 3000 to 33000 | Cc1cn2cc(-c3cc(=O)n4cc(N5CCNCC5)ccc4n3)cc(CO)c2n1 [compound 674, 2-[8-(hydroxymethyl)-2-methylimidazo[1,2-a]pyridin-6-yl]-7-(piperazin-1-yl)-4H-pyrido[1,2-a]pyrimidin-4-one]
6 | 500 to 1000 | Cc1cn2cc(-c3cc(=O)n4cc(C5CCNCC5)ccc4n3)ccc2n1 [compound 438, 2-(2-methylimidazo[1,2-a]pyridin-6-yl)-7-(piperidin-4-yl)-4H-pyrido[1,2-a]pyrimidin-4-one]
7 | 3000 to 33000 | O=c1cc(-c2cnn(C3CCCCO3)c2)nc2ccc(N3CCNCC3)cn12 (centres unmarked) [compound 854, 7-(piperazin-1-yl)-2-[1-(tetrahydro-2H-pyran-2-yl)-1H-pyrazol-4-yl]-4H-pyrido[1,2-a]pyrimidin-4-one]
8 | 3000 to 33000 | CCCc1nc(C)cn2nc(-c3cc(=O)n4cc(N5CCNCC5)ccc4n3)cc12 [compound 723, 2-(6-methyl-4-propylpyrazolo[1,5-a]pyrazin-2-yl)-7-(piperazin-1-yl)-4H-pyrido[1,2-a]pyrimidin-4-one]
9 | 3000 to 33000 | Cn1cc(-c2cc(=O)n3cc(N4CCNCC4)ccc3n2)cn1 [compound 192, 2-(1-methyl-1H-pyrazol-4-yl)-7-(piperazin-1-yl)-4H-pyrido[1,2-a]pyrimidin-4-one]
10 | 3000 to 33000 | Cc1cn2cc(-c3cc(=O)n4cc(N5CCN(C)CC5)ccc4n3)cc(CO)c2n1 [compound 677, 2-[8-(hydroxymethyl)-2-methylimidazo[1,2-a]pyridin-6-yl]-7-(4-methylpiperazin-1-yl)-4H-pyrido[1,2-a]pyrimidin-4-one]
11 | 3000 to 33000 | Cc1cn2ccc(-c3cc(=O)n4cc(N5CCNCC5)ccc4n3)cc2n1 [compound 555, 2-(2-methylimidazo[1,2-a]pyridin-7-yl)-7-(piperazin-1-yl)-4H-pyrido[1,2-a]pyrimidin-4-one]
12 | 3000 to 33000 | C[C@@H]1CN(c2ccc3nc(-c4ccc5c(cnn5C)c4)cc(=O)n3c2)CCN1 [compound 545, 2-(1-methyl-1H-indazol-5-yl)-7-[(3R)-3-methylpiperazin-1-yl]-4H-pyrido[1,2-a]pyrimidin-4-one]
13 | 3000 to 33000 | Cc1cn2nc(-c3cc(=O)n4cc(N5C[C@@H](C)N[C@@H](C)C5)ccc4n3)cc2cn1 [compound 442, 7-[(3R,5S)-3,5-dimethylpiperazin-1-yl]-2-(6-methylpyrazolo[1,5-a]pyrazin-2-yl)-4H-pyrido[1,2-a]pyrimidin-4-one]
14 | 3000 to 33000 | CN1CCC(c2cn3c(=O)cc(-c4ccc5nn(C)cc5c4)nc3cn2)CC1 [compound 567, 2-(2-methyl-2H-indazol-5-yl)-7-(1-methylpiperidin-4-yl)-4H-pyrazino[1,2-a]pyrimidin-4-one]
15 | 3000 to 33000 | Cc1cn2ccc(-c3cc(=O)n4cc(N5CCN(C)CC5)ccc4n3)cc2n1 [compound 557, 2-(2-methylimidazo[1,2-a]pyridin-7-yl)-7-(4-methylpiperazin-1-yl)-4H-pyrido[1,2-a]pyrimidin-4-one]
16 | < 100 | CCc1nc(C)cn2nc(-c3cc(=O)n4cc(C5CCN(C)CC5)ncc4n3)cc12 [compound 654, 2-(4-ethyl-6-methylpyrazolo[1,5-a]pyrazin-2-yl)-7-(1-methylpiperidin-4-yl)-4H-pyrazino[1,2-a]pyrimidin-4-one]
17 | 1000 to 3000 | Cc1cn2nc(-c3cc(=O)n4cc(C5CCNCC5)cc(C)c4n3)cc2c(C)n1 [compound 671, 2-(4,6-dimethylpyrazolo[1,5-a]pyrazin-2-yl)-9-methyl-7-(piperidin-4-yl)-4H-pyrido[1,2-a]pyrimidin-4-one]
18 | 3000 to 33000 | Cc1csc(-c2cc(=O)n3cc(N4CCNCC4)ccc3n2)n1 [compound 163, 2-(4-methyl-1,3-thiazol-2-yl)-7-(piperazin-1-yl)-4H-pyrido[1,2-a]pyrimidin-4-one]
19 | 3000 to 33000 | COc1ncc(-c2cc(=O)n3cc(N4CCNCC4)ccc3n2)cc1Cl [compound 96, 2-(5-chloro-6-methoxypyridin-3-yl)-7-(piperazin-1-yl)-4H-pyrido[1,2-a]pyrimidin-4-one]
20 | 1000 to 3000 | Cc1cn2cc(-c3cc(=O)n4cc(N5CCNCC5)ccc4n3)nc2cn1 [compound 74, 2-(6-methylimidazo[1,2-a]pyrazin-2-yl)-7-(piperazin-1-yl)-4H-pyrido[1,2-a]pyrimidin-4-one]
21 | 3000 to 33000 | Cc1cn2nc(-c3cc(=O)n4cc(N5CCNC(C(F)(F)F)C5)ccc4n3)cc2c(C)n1 (centres unmarked) [compound 844, 2-(4,6-dimethylpyrazolo[1,5-a]pyrazin-2-yl)-7-[3-(trifluoromethyl)piperazin-1-yl]-4H-pyrido[1,2-a]pyrimidin-4-one]
22 | 3000 to 33000 | Cc1cn2nc(-c3cc(=O)n4cc(N5CCC(N(C)CCO)CC5)cc(C)c4n3)cc2c(C)n1 [compound 582, 2-(4,6-dimethylpyrazolo[1,5-a]pyrazin-2-yl)-7-{4-[(2-hydroxyethyl)(methyl)amino]piperidin-1-yl}-9-methyl-4H-pyrido[1,2-a]pyrimidin-4-one]
23 | 3000 to 33000 | COc1cc(OS(=O)(=O)C(F)(F)F)ccc1-c1cc(=O)n2cc(C3=CCN(C(=O)OC(C)(C)C)CC3)ccc2n1 [compound 848, tert-butyl 4-[2-(2-methoxy-4-{[(trifluoromethyl)sulfonyl]oxy}phenyl)-4-oxo-4H-pyrido[1,2-a]pyrimidin-7-yl]-3,6-dihydropyridine-1(2H)-carboxylate]
24 | 3000 to 33000 | Cn1ncc2cc(-c3cc(=O)n4cc(N5CCNCC5)ccc4n3)ccc21 [compound 490, 2-(1-methyl-1H-indazol-5-yl)-7-(piperazin-1-yl)-4H-pyrido[1,2-a]pyrimidin-4-one]
25 | 100 to 500 | Cc1cn2cc(-c3cc(=O)n4cc(C5CCNCC5)ncc4n3)cc(Cl)c2n1 [compound 587, 2-(8-chloro-2-methylimidazo[1,2-a]pyridin-6-yl)-7-(piperidin-4-yl)-4H-pyrazino[1,2-a]pyrimidin-4-one]
26 | 3000 to 33000 | O=c1cc(-c2cccnc2)nc2ccc(N3CCNCC3)cn12 [compound 228, 7-(piperazin-1-yl)-2-(pyridin-3-yl)-4H-pyrido[1,2-a]pyrimidin-4-one]
27 | 500 to 1000 | Cc1cc2cc(-c3cc(=O)n4cc(N5CCN(C)CC5)ccc4n3)oc2c(C)n1 [compound 487, 2-(5,7-dimethylfuro[2,3-c]pyridin-2-yl)-7-(4-methylpiperazin-1-yl)-4H-pyrido[1,2-a]pyrimidin-4-one]
28 | 3000 to 33000 | O=c1cc(-c2ccc3nc(C(F)(F)F)cn3c2)nc2ccc(N3CCNCC3)cn12 [compound 123, 7-(piperazin-1-yl)-2-[2-(trifluoromethyl)imidazo[1,2-a]pyridin-6-yl]-4H-pyrido[1,2-a]pyrimidin-4-one]

Row | SMILES | IC50 [nM]
29 | Cc1cn2nc(-c3cc(=O)n4cc(C5=CCN(C)CC5)ccc4n3)cc2c(C)n1 [compound 350, 2-(4,6-dimethylpyrazolo[1,5-a]pyrazin-2-yl)-7-(1-methyl-1,2,3,6-tetrahydropyridin-4-yl)-4H-pyrido[1,2-a]pyrimidin-4-one] | 3000 to 33000
30 | Cc1cc(N(C)C2CC(C)(C)NC(C)(C)C2)cn2c(=O)cc(-c3ccc4nn(C)cc4c3)nc12 [compound 853, 9-methyl-2-(2-methyl-2H-indazol-5-yl)-7-[methyl(2,2,6,6-tetramethylpiperidin-4-yl)amino]-4H-pyrido[1,2-a]pyrimidin-4-one] | 3000 to 33000
31 | CCN1CC=C(c2ccc3nc(-c4cc(F)c5nc(C)oc5c4)cc(=O)n3c2)CC1 [compound 318, 7-(1-ethyl-1,2,3,6-tetrahydropyridin-4-yl)-2-(4-fluoro-2-methyl-1,3-benzoxazol-6-yl)-4H-pyrido[1,2-a]pyrimidin-4-one] | 1000 to 3000
32 | CCN1CC=C(c2ccc3nc(-c4cc5c(C)nc(C)cn5n4)cc(=O)n3c2)CC1 [compound 351, 2-(4,6-dimethylpyrazolo[1,5-a]pyrazin-2-yl)-7-(1-ethyl-1,2,3,6-tetrahydropyridin-4-yl)-4H-pyrido[1,2-a]pyrimidin-4-one] | 3000 to 33000
